Measured values as given in patent publication US8722897B2, “Metal complexes of thiourea and derivatives as metal delivering anti-cancer and anti-inflammatory agents” (priority 2010, dated 2014).

What was measured:
TrxR1 [1] = molecular target: T1, TrxR1 (Rattus norvegicus, UniProt O89049); test: biochemical; conditions: for Ki: progress curve analysis
T1 sequence (O89049 1-499): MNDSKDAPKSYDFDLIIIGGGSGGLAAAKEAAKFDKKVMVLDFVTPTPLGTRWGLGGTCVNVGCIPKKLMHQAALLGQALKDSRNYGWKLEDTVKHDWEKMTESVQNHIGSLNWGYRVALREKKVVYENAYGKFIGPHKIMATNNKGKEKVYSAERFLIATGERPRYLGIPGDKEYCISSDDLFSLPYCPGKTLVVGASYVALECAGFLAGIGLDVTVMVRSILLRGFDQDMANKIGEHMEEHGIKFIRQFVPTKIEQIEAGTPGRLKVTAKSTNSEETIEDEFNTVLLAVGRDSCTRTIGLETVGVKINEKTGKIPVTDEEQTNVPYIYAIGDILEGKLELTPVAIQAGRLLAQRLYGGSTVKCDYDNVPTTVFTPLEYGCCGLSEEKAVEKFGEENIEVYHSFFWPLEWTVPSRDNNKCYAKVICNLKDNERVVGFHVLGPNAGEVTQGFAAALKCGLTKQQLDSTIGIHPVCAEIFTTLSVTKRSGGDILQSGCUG
Protocol: This was further studied by progress curve analysis (FIG. 8). ^24, 25 1 was added in excess (3-100 nM) to a reaction mixture containing 0.2 mM NADPH, 1 nM TrxR and 3 mM disulfide substrate 5,5′-dithiobis(2-nitrobenzoic acid) (DTNB) in phosphate buffer (pH 7.4). […] This was analyzed using Eq. 1 (Example 6), where P is the product concentration, vi and vf are the initial and final steady-state velocities, respectively, and kapp is the apparent first-order rate constant for establishment of the final steady-state inhibition. A plot of the kapp against the inhibitor concentrations followed a hyperbolic function (FIG. 8B). This is indicative of a two-step, tight-binding inhibition mechanism:
[formula] where EI is the initial collision complex, k3 is the forward isomerization rate, and k4 is the reverse isomerization rate. In this scheme, binding involves rapid formation of an initial collision complex (EI) that subsequently undergoes isomerization to the final slow dissociating enzyme-inhibitor complex (EI*). The k3, k4 and the dissociation constant of the initial collision complex EI (Ki′) can be obtained by fitting the data to Eq. 2.
1 was added in excess (3-100 nM) to a reaction mixture containing 0.2 mM NADPH, 1 nM TrxR1, 3 mM disulfide substrate 5,5′-dithiobis(2-nitrobenzoic acid) (DTNB), 100 mM phosphate buffer, pH 7.4 and 1 mM EDTA. The progress curves are non-linear, showing two-phase equilibria typical of slow-onset tight-binding inhibition. The data was fit into Eq. 1 using GraphPad Prism 3.0 software, P=vft+((vi−vf/kapp)(1−e^−kappt) (1) where P is the product concentration, vi and vf are the initial and final steady-state velocities, respectively, and kapp is the apparent first-order rate constant for establishment of the final steady-state inhibition. A plot of the kapp against the inhibitor concentrations followed a hyperbolic function (FIG. 8B). This is indicative of a two-step, tight-binding inhibition mechanism:
[formula] where EI is the initial collision complex, k3 is the forward isomerization rate, and k4 is the reverse isomerization rate. […]

[2] = molecular target: T2, Glutathione reductase (GR) (Homo sapiens, UniProt P00390); test: Cellular glutathione reductase activity of treated HeLa cells; assay type: cell-based; conditions: one-hour treatment
T2 construct: endogenous in cells; host or cells: HeLa
T2 sequence (P00390 44-522): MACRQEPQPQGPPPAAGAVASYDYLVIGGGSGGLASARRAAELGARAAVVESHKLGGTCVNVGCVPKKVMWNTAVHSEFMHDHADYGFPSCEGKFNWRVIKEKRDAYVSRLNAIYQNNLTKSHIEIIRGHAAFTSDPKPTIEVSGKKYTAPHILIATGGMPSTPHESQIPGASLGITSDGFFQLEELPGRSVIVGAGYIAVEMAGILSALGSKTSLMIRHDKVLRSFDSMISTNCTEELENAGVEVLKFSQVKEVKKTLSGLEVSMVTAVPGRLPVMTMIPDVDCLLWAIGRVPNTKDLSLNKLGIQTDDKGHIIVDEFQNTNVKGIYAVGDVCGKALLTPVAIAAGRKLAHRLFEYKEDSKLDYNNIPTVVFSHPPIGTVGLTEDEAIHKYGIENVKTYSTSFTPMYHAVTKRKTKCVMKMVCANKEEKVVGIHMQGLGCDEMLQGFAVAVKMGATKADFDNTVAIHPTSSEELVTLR
Protocol: Cells were seeded at 2×10^5/well in 6-well plates and incubated for 24 hours. The metal thiourea compounds (10^−9 to 10^−4 M) were serially diluted and added to the cells (final DMSO concentrations≦1%). After an one-hour incubation, cells were washed thrice with phosphate buffered saline and 100 μL ice-cold lysis buffer (50 mM phosphate buffer, pH 7.4, 1 mM EDTA, 0.1% Triton-X 100) were added to the cell layer. Cell lysis was carried on ice for 5 minutes and the cell lysates were collected and stored at −80° C. or assayed immediately.
Cell lysates (10 μg proteins) were added to a mixture containing 100 mM phosphate, pH 7.4, 1 mM EDTA, 1 mM GSSG and 0.2 mM NADPH. Reaction was initiated by adding DTNB (3 mM final) and the increases in O.D.412 nm were measured for 10 min. GR activities were determined by subtracting the increases in O.D.412 nm in the absence of GSSG.

[3] = Cytotoxicity assay (MTT), SUNE1; conditions: human, SUNE1 cells
Protocol: (§1) Cells were seeded in a 96-well flat-bottomed microplate at 20,000 cells/well in 150 μL of growth medium solution. The compounds were dissolved in dimethyl sulfoxide. Serial dilution of each complex was added to each well with final concentration of DMSO≦1%. The microplate was incubated at 37° C., 5% CO2, 95% air in a humidified incubator for 72 h. After incubation, 10 μL MTT reagent (5 mg/mL) was added to each well. The microplate was re-incubated at 37° C. in 5% CO2 for 4 h. Solubilization solution (10% SDS in 0.01 M HCl) (100 μL) was added to each well. The microplate was left in an incubator for 24 h. Absorbances at 550 nm were measured by a microplate reader.

[4] = Cytotoxicity assay (MTT), HeLa; conditions: human, HeLa cells
Protocol: Cells were seeded in a 96-well flat-bottomed microplate at 20,000 cells/well in 150 μL of growth medium solution. The compounds were dissolved in dimethyl sulfoxide. Serial dilution of each complex was added to each well with final concentration of DMSO≦1%. […] After incubation, 10 μL MTT reagent (5 mg/mL) was added to each well. The microplate was re-incubated at 37° C. in 5% CO2 for 4 h. Solubilization solution (10% SDS in 0.01 M HCl) (100 μL) was added to each well. The microplate was left in an incubator for 24 h. Absorbances at 550 nm were measured by a microplate reader.

[5] = Cytotoxicity assay (MTT), HepG2; conditions: human, HepG2 cells
Protocol: as §1

[6] = Cytotoxicity assay (MTT), NCI-H460; conditions: human, NCI-H460 cells
Protocol: as §1

TrxR1 [7] = molecular target: T1, TrxR1; test: In vitro TrxR enzyme assay, with or without NADPH pre-reduction; assay type: biochemical
Protocol: A plot of the kapp against the inhibitor concentrations followed a hyperbolic function (FIG. 8B). This is indicative of a two-step, tight-binding inhibition mechanism: […] DTNB (3 mM) and NADPH (0.2 mM) was then added. The TrxR1 activities were determined as the increases in O.D.412 nm over 10 min.

**Q.** With `COc1ccc(N2CCN(c3ccc(OC)cc3)C2=[S+][Au-][S+]=C2N(c3ccc(OC)cc3)CCN2c2ccc(OC)cc2)cc1` [complex 1, [Au(TU)2]Cl] as the compound, how does the “recovery of enzyme activities after removal of the free inhibitors by ultrafiltration” value (TrxR1 [1]) read?
**A.** The value was “could not be recovered”.

**Q.** What about the Ki (TrxR1 [1]; dissociation constant of the initial collision complex EI (Ki′)) of the same compound?
**A.** The Ki was 1390 pM.

**Q.** And the Ki (TrxR1 [1]; overall inhibitory constant Ki*, Eq. 3)?
**A.** The Ki was 18 pM.

**Q.** And the “effect on cellular GR activity” value [2]?
**A.** Its value is “not affected”.

**Q.** And the IC50 at 72 h [3]?
**A.** Its IC50 at 72 h is 10.8 ± 0.2 µM.

**Q.** And the IC50 at 72 h [4]?
**A.** The IC50 at 72 h was 14.6 ± 0.7 µM.

**Q.** What about the IC50 at 72 h [5] of the same compound?
**A.** Its IC50 at 72 h is 17.4 ± 1 µM.

**Q.** What about the IC50 at 72 h [6] of the same compound?
**A.** The IC50 at 72 h was 3.72 ± 0.3 µM.

**Q.** And the “concentration for half maximal inhibition of TrxR” value (TrxR1 [7]; TrxR 1 nM)?
**A.** Its value is “approximately equal molar concentration”.

**Q.** What about the “inhibition of NADPH reduced TrxR compared with oxidized TrxR” value (TrxR1 [7]; with or without 0.2 mM NADPH pre-reduction) of the same compound?
**A.** The value was “much more efficiently inhibited”.
